Test results as given in patent US5646121A, “Pseudopeptides with antiviral activity” (Bayer Aktiengesellschaft, priority 1993, dated 1997).
Read-outs that look alike come from different tables or passages of the source.

Assays:
[1] = tested on: human embryonic lung fibroblasts (HELF); test: Anti-cellular effect on HELF cells in the anti-HCMV screening test
Procedure: (§1) The anti-HCMV effect was determined in a screening test system in 96-well microtitre plates, making use of human embryonic lung fibroblasts (HELF) cell cultures. The influence of the substances on the spread of the cytopathogenic effect was compared with that of the reference substance ganciclovir (Cymevene® sodium), a clinically approved anti-HCMV chemotherapeutic agent.
(§2) The substances dissolved in DMSO (dimethyl sulphoxide) (at 50 mM concentration) are investigated on microtitre plates (96-well) at final concentrations of 1,000-0.00048 μM (micromolar) in double determinations (4 substances/plate). The conditions are such that both toxic and cytostatic effects of the substances are recorded. Once the appropriate substance dilutions (1:2) have been made on the microtitre plate, a suspension of 50-100 HCMV-infected HELF cells and 3×10^4 non-infected HELF cells in Eagle's MEM (minimal essential medium) containing 10% foetal calf serum is added to each well and the plates are then incubated at 37° C. in a CO2 incubator for a period of 6 days. […] After staining with neutral red and fixing with formalin/methanol, the plates are evaluated with the aid of a projection microscope (plaque viewer).

HCMV (Davis) = test: Anti-HCMV screening test: inhibition of the cytopathogenic effect in HELF cell cultures; format: cell-based, human cytomegalovirus; conditions: for IC50: HCMV (Davis)-infected HELF cells, 6 days, concentration causing 50% inhibition of the CPE; for SI: selectivity index, defined by footnote 3 (drawing 26), HELF CIC50 versus HCMV IC50
Procedure: as §1, §2

Row | CIC50 (HELF) ([1]; HELF cells, 6 days incubation, highest concentration which does not show any obvious anticellular effect) [µM] | IC50 (HCMV (Davis); Human betaherpesvirus 5, 144 h) [nM] | CIC50 (HELF) [1] [µM] | IC50 (HCMV (Davis)) [nM] | SMILES | SI (HCMV (Davis))
1 | 125 | 2000 to 4000 | – | – | Nc1nc(O)c2ncn(COC(CO)CO)c2n1 [Cymevene.Na, ganciclovir] | 32-64
2 | – | – | 2.8 | 4 | Cc1ccc(S(=O)(=O)NC(=N)NCCC[C@H](NC(=O)OCc2ccccc2)C(=O)N[C@H](C(=O)NC(C=O)Cc2ccccc2)C(C)(C)C)cc1 (stereo partly drawn) [Example 50, (2R,S)-2-[Nα-(Benzyloxycarbonyl)-N^G -(4-methyl-phenylsulphonyl)-S-arginyl-S-(tert-butyl)glycinyl]amino-3-phenyl-propan-1-al] | 700
